This is an account of results in patent US5153173A, “N-acyl derivatives of the peptidoglycan monomer, pharmaceutically acceptable salts thereof, their preparation and use as immunomodulators and immunoadjuvants” (Pliva Farmaceutska, priority 1990, dated 1992).

Several values for one entry are separate records, joined by “and”; a condition that tells them apart may be missing. Identical values can stand only once.

The conditions of series [1]: Eur. J. Cancer Oncol. 19 (1983); Cancer Immunol. Immunother. 15 (1983), 18 (1984); cited from earlier work.
The conditions of series [2]: Z. Immun.-Forsch. 155 (1979), 312-328; cited from earlier work.
The nature of series [3]: Spleen weight of CBA mice after a single i.v. dose. As to conditions: for Spleen weight, % (control = 100) / Spleen weight: CBA male mice, single i.v. dose 200 μg/mouse (10 mg/kg); for Spleen weight, % (control = 100): relative to control of the same experiment; for Spleen weight: value ± spread; for change in the spleen weight: differences to control not significant, tendency of improved activity; for increase in the spleen weight in comparison to the control values: statistically significant, CBA mice, i.v. 200 μg/mouse. Type of series: in vivo, CBA male mice. As for the experimental part:
(§1) The biological activity of the claimed compounds was tested on CBA male mice, 2-2.5 months old. The animals had been adapting to the laboratory conditions at least one week prior to each testing. The effectiveness of the N-acyl derivative of PGM was compared with the results achieved in control mice goups which were administered a physiological solution (negative control) and the original PGM (positive control). All tested substances were administered to the organism by intravenous (i.v.) route in a single dose of 200 μg/mouse and 10 mg/kg resp. The following effects of the immunopharmacological activity were surveyed: spleen weight, number of lymphocytes and number of PFC (plaque forming cells) according to the method of Jerne (in: Cell Bound Antibodies, Whister Institute Press, Philadelphia (1963), p.109). The spleen weight is expressed in mg. The number of the spleen lymphocytes is expressed as the absolute number in 1 ml, whereas the PFC are expressed by way of their total number and by their activity 10^6 spleen lymphocytes. The test groups and the corresponding control groups resp. comprised each 5-7 mice. The activity of each N-acyl derivative of PGM was examined at least three times in various periods. The statistical analysis was performed with the parametric Student t-test, applying the original computer programme Stat Works. The significance of the differences was assessed by two-tailed test at the level of acceptance equal or less than 5%. The summarized results of the effects of individual N-acyl derivatives on the parameters of immune response are listed in Table 1.

The next series relates to spleen lymphocytes. Nature of the series: Number of spleen lymphocytes of CBA mice after a single i.v. dose. Type of series: in vivo, CBA male mice. Set-up: No spleen cells: unit not given beside the values. The settings on record: for No spleen cells, % (control = 100) / No spleen cells: CBA male mice, single i.v. dose 200 μg/mouse; for No spleen cells, % (control = 100): relative to control of the same experiment; for reduction of the number of spleen lymphocytes in comparison to the control values / increase of the number of the spleen lymphocytes: absolute number in 1 mL; for reduction of the number of spleen lymphocytes in comparison to the control values / effect upon the number of spleen lymphocytes / increase of the number of the spleen lymphocytes: CBA mice, i.v. 200 μg/mouse; for No spleen cells: absolute number of spleen lymphocytes in 1 ml, value ± spread. The procedure: as §1

For series [4], the system named is PFC (plaque forming cells). Nature of the series: Number of PFC (plaque forming cells), method of Jerne, in CBA mice. As to conditions: for Abs. PFC, % (control = 100) / PFC/l mil, % (control = 100) / PFC/l mil / Abs. PFC: CBA male mice, single i.v. dose 200 μg/mouse; for Abs. PFC, % (control = 100) / PFC/l mil, % (control = 100): relative to control of the same experiment; for PFC/l mil: PFC per 10^6 spleen lymphocytes; for PFC/l mil / Abs. PFC: value ± spread; for PFC activity with respect to the number of the spleen lymphocytes, significance / increase of PFC / overall PFC activity, significance (words): Student t-test versus control; for Abs. PFC: total number of PFC. Type of series: in vivo, CBA male mice. The procedure: as §1

The conditions of series [5]: cited from earlier work.
For the next series, the system named is immune response. Nature of the series: Overall immunopharmacological activity (cellular and humoral immunity) in CBA mice. Type of series: in vivo, CBA male mice. The settings on record: for involvement in the humoral immunity / effect on the cellular immune response: conclusion from Table 1. The procedure:
as §1

With `CC(=O)NC1C(OC2C(CO)OC(O)C(NC(C)=O)C2OC(C)C(=O)NC(C)C(=O)NC(CCC(=O)NC(CCCC(N)C(=O)O)C(=O)NC(C)C(=O)NC(C)C(=O)O)C(N)=O)OC(CO)C(O)C1O` (centres unmarked) [PGM, peptidoglycan monomer], the antimetastatic activity entry in series [1] is “antimetastatic activity”. The immunomodulating activity result in series [2] is on record as “immunomodulating”. The “Spleen weight, % (control = 100)” value in series [3] (10 mg/kg) is 115% and 107% and 104% and 103% and 106% and 102%. In addition, the “No spleen cells, % (control = 100)” value in the series with spleen lymphocytes is 122% and 87% and 113% and 94% and 93% and 102% and 90%. In addition, in series [4], the “Abs. PFC, % (control = 100)” value is 159% and 139% and 119% and 102% and 100% and 105% and 112% and 135%; the “PFC/l mil, % (control = 100)” value is 128% and 116% and 111% and 96% and 102% and 118% and 150%; the PFC/l mil is 156.1 ± 102.78 and 190.4 ± 79.53 and 117.1 ± 48.37 and 214.4 ± 95.61 and 163.6 ± 72.39 and 141.4 ± 40.57 and 219.1 ± 96.98 and 206.9. For the same compound, the “solubility in organic solvents” value in series [5] (organic solvents) is reported as “insoluble”. Further, the solubility in water entry in series [5] (water) is “well water-soluble”.

Regarding NA-salt of N-acetyl-PGM [Acetyl PGM], in series [3], the “Spleen weight, % (control = 100)” value is recorded as 106% and the Spleen weight is recorded as 112.3 ± 12.08 mg. Further, in the series on spleen lymphocytes, the “No spleen cells, % (control = 100)” value is given as 96%; the “reduction of the number of spleen lymphocytes in comparison to the control values” (“reduction” below) is listed as 4-6%; the No spleen cells amounted to 41.9 ± 5.66. In series [4], the “Abs. PFC, % (control = 100)” value came to 111%; the “PFC/l mil, % (control = 100)” value was found to be 119%; the PFC/l mil came out at 202.7 ± 91.97; the “PFC activity with respect to the number of the spleen lymphocytes, significance” value is recorded as “clearly expressed enhancing tendency”. The “Abs. PFC” value in series [4] came out at 85.8 ± 33.17.

For the compound Na-salt of N-benzoyl-PGM [Benzoyl PGM], in series [3], the “Spleen weight, % (control = 100)” value is given as 114%; the Spleen weight worked out at 113.4 ± 22.28 mg; the “change in the spleen weight” value was “relative increase”. For the same compound, in the series with spleen lymphocytes, the “No spleen cells, % (control = 100)” value is 100%; the “effect upon the number of spleen lymphocytes” value was “no effect”; the No spleen cells came to 34.1 ± 9.56. In addition, the “involvement in the humoral immunity” value in the series on immune response is recorded as “more significantly involved”. Also, in series [4], the “Abs. PFC, % (control = 100)” value is reported as 138%; the “PFC/l mil, % (control = 100)” value turned out to be 142%; the PFC/l mil is on record as 282.1; the “PFC activity with respect to the number of the spleen lymphocytes, significance” value is “clearly expressed enhancing tendency”. For the same compound, the “Abs. PFC” value in series [4] was 95.7 ± 28.45. For the same compound, the “increase of PFC / overall PFC activity, significance (words)” value in series [4] (listed as N-benzoyl) is recorded as “statistically significant difference”. Besides, the “increase of PFC / overall PFC activity, significance (words)” value in series [4] (listed as benzoyl) was “significant effect”.

“Na-salt of N-capriloyl-PGM [Capriloyl PGM]”: in series [3], the “Spleen weight, % (control = 100)” value was 100% and the Spleen weight turned out to be 120.4 ± 12.36 mg. In addition, in the series on spleen lymphocytes, the “No spleen cells, % (control = 100)” value was determined as 119%; the “increase of the number of the spleen lymphocytes” value stood at 19%; the No spleen cells stood at 46.1 ± 11.70. Also, the “effect on the cellular immune response” value with immune response is “significant effect”. Moreover, in series [4], the “Abs. PFC, % (control = 100)” value turned out to be 159%; the “PFC/l mil, % (control = 100)” value is on record as 126%; the PFC/l mil was 154.2 ± 111.12; the “Abs. PFC” value is recorded as 88.5 ± 75.95.

On to Na-salt of N-lauroyl-PGM [Lauroyl PGM], for which, in series [3], the “Spleen weight, % (control = 100)” value was 112%; the Spleen weight was found to be 135.5 ± 22.60 mg; the “change in the spleen weight” value is listed as “relative increase”. Also, in the series with spleen lymphocytes, the “No spleen cells, % (control = 100)” value is given as 79%; the “reduction” value is listed as 20%; the No spleen cells is reported as 45.2 ± 8.50. For the same compound, the “activity in comparison with the original PGM” value in the series on immune response (administered in the same concentration) was “superior activity”. In the series with immune response, the “effect on the cellular immune response” value is recorded as “significant effect” and the “involvement in the humoral immunity” value was “more significantly involved”. Besides, in series [4], the “Abs. PFC, % (control = 100)” value amounted to 162%; the “PFC/l mil, % (control = 100)” value is 155%; the PFC/l mil came out at 254.2; the “PFC activity with respect to the number of the spleen lymphocytes, significance” value is listed as “statistically significant difference”. Also, the “Abs. PFC” value in series [4] worked out at 125.4 ± 68.45. In series [4] (listed as N-lauroyl), the “increase of PFC / overall PFC activity, significance (words)” value was “statistically significant difference”. Further, the “increase of PFC / overall PFC activity, significance (words)” value in series [4] (listed as lauroyl) is given as “significant effect”.

Consider “Na-salt of N-pivaloyl-PGM [Pivaloyl PGM]”, for which, in series [3], the “Spleen weight, % (control = 100)” value was 107%; the Spleen weight was determined as 125.5 ± 19.44 mg; the “change in the spleen weight” value is on record as “relative increase”. Further, in the series with spleen lymphocytes, the “No spleen cells, % (control = 100)” value was 94%; the “reduction” value is recorded as 4-6%; the No spleen cells worked out at 42.9 ± 9.82. In addition, in series [4], the “Abs. PFC, % (control = 100)” value is reported as 110%; the “PFC/l mil, % (control = 100)” value came to 118%; the PFC/l mil is listed as 163.8 ± 52.95; the “Abs. PFC” value is 76.4 ± 24.94.

For “sodium salt of N-oleoyl-PGM [Oleoyl PGM]”, in series [3], the “Spleen weight, % (control = 100)” value amounted to 121%; the Spleen weight turned out to be 131.7 ± 14.40 mg; the “increase in the spleen weight in comparison to the control values” worked out at 21%. In addition, in the series with spleen lymphocytes, the “No spleen cells, % (control = 100)” value worked out at 103%; the “increase of the number of the spleen lymphocytes” value was 3-9%; the No spleen cells worked out at 42.3 ± 7.96. In addition, in series [4], the “Abs. PFC, % (control = 100)” value came out at 113%; the “PFC/l mil, % (control = 100)” value stood at 109%; the PFC/l mil is given as 210.8 ± 88.40; the “Abs. PFC” value is reported as 97.1 ± 41.86.

As for “sodium salt of N-stearoyl-PGM [Stearoyl PGM]”, in series [3], the “Spleen weight, % (control = 100)” value was 113%; the Spleen weight was found to be 123.6 ± 18.63 mg; the “increase in the spleen weight in comparison to the control values” came out at 13%. In the series on spleen lymphocytes, the “No spleen cells, % (control = 100)” value is 100%; the “effect upon the number of spleen lymphocytes” value is given as “no effect”; the No spleen cells was 37.8 ± 6.90. In series [4], the “Abs. PFC, % (control = 100)” value worked out at 126%; the “PFC/l mil, % (control = 100)” value worked out at 118%; the PFC/l mil was 219.2 ± 67.11; the “Abs. PFC” value was 93.4 ± 37.55.
